Test results published in US9902701B2, “Pyridazones and triazinones for treatment and prophylaxis of hepatitis B virus infection” (priority 2014, dated 2018).

system: HBsAg; experiment: HBsAg assay: chemiluminescence immunoassay (CLIA) of secreted HBsAg in supernatant of HepG2.2.15 cells; format: cell-based, HBV; conditions: Hepatitis B virus
Procedure: HepG2.2.15 cells (Acs et al. Proc Natl Acad Sci USA, 84, (1987), 4641-4), a constitutively HBV-expressing cell line were cultured in DMEM+Glutamax-I medium (Invitrogen, Carlsbad, Calif., USA), supplemented with 10% fetal bovine serum (Invitrogen) and G418 (Invitrogen) at a final concentration of 200 mg/L and maintained in 5% CO2 at 37° C.
HepG2.2.15 cells were seeded in duplicate into white, 96-well plates at 1.5×10^4 cells/well. The cells were treated with a three-fold serial dilution series of the compounds in DMSO. The final DMSO concentration in all wells was 1% and DMSO was used as no drug control.
The HBsAg chemiluminescence immunoassay (CLIA) kit (Autobio Diagnostics Co., Zhengzhou, China, Catalog number: CL0310-2) was used to measure the levels of secreted HBV antigens semi-quantitatively. For the detection 50 μL/well culture supernatant was used and HBsAg was quantified using HBsAg chemiluminescence immunoassay (CLIA) kit (Autobio Diagnostics Co., Zhengzhou, China, Catalog number: CL0310-2), 50 μL of the supernatant was transferred to the CLIA assay plate and 50 μL of enzyme conjugate reagent was added into each well. The plates were sealed and gently agitated for 1 hour at room temperature. The supernatant-enzyme-mixture was discarded and wells were washed 6 times with 300 μL of PBS. The residual liquid was removed by plating the CLIA plate […] on absorbent tissue paper. 25 μL of substrates A and B were added to each well. Luminance was measured using a luminometer (Mithras LB 940 Multimode Microplate Reader) after 10 minutes incubation. Dose-response curves were generated and the IC50 value was extrapolated by using the E-WorkBook Suite (ID Business Solutions Ltd., Guildford, UK). The IC50 was defined as the compound concentration (or conditioned media log dilution) at which HBsAg secretion was reduced by 50% compared to the no drug control.

| Structure (SMILES) | IC50 [nM] |
| --- | --- |
| COc1ccc(N(C)C(=O)CN2N=C(c3ccc(Cl)cc3)CCC2=O)cc1 [Example 1-20, 2-[3-(4-Chlorophenyl)-6-oxo-4,5-dihydropyridazin-1-yl]-N-(4-methoxyphenyl)-N-methyl-acetamide] | 5690 |
| CN(C(=O)CN1N=C(c2ccc(Cl)cc2)CCC1=O)c1ccc(F)cc1 [Example 1-6, 2-[3-(4-Chlorophenyl)-6-oxo-4,5-dihydropyridazin-1-yl]-N-(4-fluorophenyl)-N-methyl-acetamide] | 3630 |
| CN(C(=O)CN1N=C(c2ccc(C#N)cc2)CCC1=O)c1ccc(Cl)cc1 [Example 1-55, N-(4-Chlorophenyl)-2-[3-(4-cyanophenyl)-6-oxo-4,5-dihydropyridazin-1-yl]-N-methyl-acetamide] | 3820 |
| CN(C(=O)CN1N=C(c2ccc(Cl)cc2)CCC1=O)c1ccc(C#N)cc1 [Example 1-10, 2-[3-(4-Chlorophenyl)-6-oxo-4,5-dihydropyridazin-1-yl]-N-(4-cyanophenyl)-N-methyl-acetamide] | 5630 |
| CN(C(=O)CN1N=C(c2ccc(F)c(F)c2)CCC1=O)c1cccc(C(F)(F)F)c1 [Example 1-52, 2-[3-(3,4-Difluorophenyl)-6-oxo-4,5-dihydropyridazin-1-yl]-N-methyl-N-[3-(trifluoromethyl)phenyl]acetamide] | 470 |
| CN(C(=O)CN1N=C(c2ccc(C(F)(F)F)cc2)CCC1=O)c1ccc(F)cc1 [Example 1-43, N-(4-Fluorophenyl)-N-methyl-2-[6-oxo-3-[4-(trifluoromethyl)phenyl]-4,5-dihydropyridazin-1-yl]acetamide] | 2470 |
| COC(=O)c1ccc(N(C)C(=O)CN2N=C(c3ccc(Cl)cc3)CCC2=O)cc1 [Example 1-11, Methyl 4-[[2-[3-(4-chlorophenyl)-6-oxo-4,5-dihydropyridazin-1-yl]acetyl]-methyl-amino]benzoate] | 8740 |
| Cc1cc(C2=NN(CC(=O)N(C)c3ccc(C(F)(F)F)c(F)c3)C(=O)CC2)ccc1F [Example 1-38, 2-[3-(4-Fluoro-3-methyl-phenyl)-6-oxo-4,5-dihydropyridazin-1-yl]-N-[3-fluoro-4-(trifluoromethyl)phenyl]-N-methyl-acetamide] | 2350 |
| CN(C(=O)CN1N=C(c2ccc(Cl)cc2)CCC1=O)c1ccc(C(F)(F)F)cc1 [Example 1-9, 2-[3-(4-Chlorophenyl)-6-oxo-4,5-dihydropyridazin-1-yl]-N-methyl-N-[4-(trifluoromethyl)phenyl]acetamide] | 389 |
| Cc1ccc(N(C)C(=O)CN2N=C(c3ccc(Cl)cc3)CCC2=O)cc1 [Example 1-7, 2-[3-(4-Chlorophenyl)-6-oxo-4,5-dihydropyridazin-1-yl]-N-methyl-N-(p-tolyl)acetamide] | 2490 |
| CN(C(=O)Cn1nc(-c2c(F)cccc2Cl)ccc1=O)c1ccc(C(F)(F)F)cc1 [Example 2-4, 2-[3-(2-Chloro-6-fluoro-phenyl)-6-oxo-pyridazin-1-yl]-N-methyl-N-[4-(trifluoromethyl)phenyl]acetamide] | 4760 |
| Cc1cc(C2=NN(CC(=O)N(C)c3ccc(C(F)(F)F)cc3)C(=O)CC2)ccc1F [Example 1-36, 2-[3-(4-Fluoro-3-methyl-phenyl)-6-oxo-4,5-dihydropyridazin-1-yl]-N-methyl-N-[4-(trifluoromethyl)phenyl]acetamide] | 3100 |
| Cc1cc(C2=NN(CC(=O)N(C)c3cccc(C(F)(F)F)c3)C(=O)CC2)ccc1F [Example 1-35, 2-[3-(4-Fluoro-3-methyl-phenyl)-6-oxo-4,5-dihydropyridazin-1-yl]-N-methyl-N-[3-(trifluoromethyl)phenyl]acetamide] | 4660 |
| CN(C(=O)CN1N=C(c2ccc(Cl)c(F)c2)CCC1=O)c1cccc(Cl)c1 [Example 1-24, 2-[3-(4-Chloro-3-fluoro-phenyl)-6-oxo-4,5-dihydropyridazin-1-yl]-N-(3-chlorophenyl)-N-methyl-acetamide] | 168 |
| CN(C(=O)CN1N=C(c2ccc(Cl)c(Cl)c2)CCC1=O)c1ccc(Cl)cc1 [Example 1-46, N-(4-Chlorophenyl)-2-[3-(3,4-dichlorophenyl)-6-oxo-4,5-dihydropyridazin-1-yl]-N-methyl-acetamide] | 420 |
| CN(C(=O)CN1N=C(c2ccc(Br)cc2)CCC1=O)c1ccccc1 [Example 1-49, 2-[3-(4-Bromophenyl)-6-oxo-4,5-dihydropyridazin-1-yl]-N-methyl-N-phenyl-acetamide] | 3870 |
| CN(C(=O)CN1N=C(c2ccc(Cl)c(F)c2)CCC1=O)c1ccc(C(F)(F)F)cc1 [Example 1-25, 2-[3-(4-Chloro-3-fluoro-phenyl)-6-oxo-4,5-dihydropyridazin-1-yl]-N-methyl-N-[4-(trifluoromethyl)phenyl]acetamide] | 240 |
| CN(C(=O)CN1N=C(c2ccc(Cl)cc2)CCC1=O)c1ccc(F)c(C(F)(F)F)c1 [Example 1-2, 2-[3-(4-Chlorophenyl)-6-oxo-4,5-dihydropyridazin-1-yl]-N-[4-fluoro-3-(trifluoromethyl)phenyl]-N-methyl-acetamide] | 740 |
